Laboratory results from publication PMC7016953 (Cells, 2020).

Assays:
TRPC3 = target: T1, TRPC3 (Homo sapiens, UniProt Q13507); test: Fluo-4 Ca2+ influx assay in HEK TRPC3-YFP cell suspensions; format: cell-based
T1 construct: expressed in transfected cells
T1 sequence (Q13507 1-848 isoform Q13507-3): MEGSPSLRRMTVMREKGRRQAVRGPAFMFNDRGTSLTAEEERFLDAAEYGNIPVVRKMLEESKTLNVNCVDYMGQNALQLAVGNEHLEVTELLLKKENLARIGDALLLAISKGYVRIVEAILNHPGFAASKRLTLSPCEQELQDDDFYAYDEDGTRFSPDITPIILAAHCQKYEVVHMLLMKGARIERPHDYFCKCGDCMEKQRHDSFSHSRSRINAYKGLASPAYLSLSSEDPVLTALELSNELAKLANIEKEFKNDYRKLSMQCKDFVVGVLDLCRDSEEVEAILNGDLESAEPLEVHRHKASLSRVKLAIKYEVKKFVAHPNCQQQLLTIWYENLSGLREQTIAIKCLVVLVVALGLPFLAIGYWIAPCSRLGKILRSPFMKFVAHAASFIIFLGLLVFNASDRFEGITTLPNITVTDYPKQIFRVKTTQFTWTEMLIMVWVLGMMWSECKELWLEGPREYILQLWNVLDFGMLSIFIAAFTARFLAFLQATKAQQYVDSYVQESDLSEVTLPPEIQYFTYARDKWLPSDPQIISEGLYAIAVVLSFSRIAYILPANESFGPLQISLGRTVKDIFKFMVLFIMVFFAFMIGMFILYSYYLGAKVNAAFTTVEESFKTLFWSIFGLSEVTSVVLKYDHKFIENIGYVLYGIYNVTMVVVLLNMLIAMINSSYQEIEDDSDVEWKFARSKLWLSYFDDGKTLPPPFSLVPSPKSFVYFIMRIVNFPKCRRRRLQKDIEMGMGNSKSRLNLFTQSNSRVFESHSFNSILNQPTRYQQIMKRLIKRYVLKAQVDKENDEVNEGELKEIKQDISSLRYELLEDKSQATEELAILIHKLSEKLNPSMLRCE

TRPM8 = test system: T2, TRPM8; test: Selectivity profiling, fluo-4 [Ca2+]i response, TRPM8; format: cell-based; settings: 100 µM
T2 construct: expressed in transfected cells
Method: The primary compound screen and the generation of concentration response curves in HEK293 cells or in PC12 cells were performed by using a custom-made fluorescence plate imager built into a robotic liquid handling station equipped with a 96-tip multichannel head (Freedom Evo 150, Tecan, Männedorf, Switzerland) as described previously. To this end, trypsinized cell suspensions were loaded with 4 µM fluo-4/AM (Invitrogen, Thermo Fisher Scientific, Waltham, MA, U.S.A.) in cell culture medium for 30 min at 37 °C. After brief centrifugation, cells were resuspended in HBS and dispensed into black pigmented, clear-bottom 384-well plates (Greiner µClear, Frickenhausen, Germany). Plates were mounted on the imager, and fluorescence signals were recorded with a cooled Zyla 5.5 camera (Andor, Belfast, UK) through a 515 nm long pass filter. The image acquisition was controlled by the µManager software (http://micro-manager.org), and excitation with a LED array (470 nm) was synchronized by the camera trigger output. […] When inhibitory potencies were evaluated, a second pipetting step with the respective reference agonist was performed. Fluorescence intensities were calculated from image stacks for each well with ImageJ (National Institutes of Health, Bethesda, MD, U.S.A.), corrected for background signals, and normalized to the initial intensities (F/F0). […]

mTRPM3α2 = test: Selectivity profiling, fluo-4 [Ca2+]i response, TRPM3; format: cell-based, mouse; settings: 100 µM
Method: (§1) Human embryonic kidney 293 (HEK293) cells were stably transfected with expression plasmids that encode hTRPC3-YFP, hTRPC6-YFP, hTRPC7-YFP, mTRPC4ß-YFP, rTRPV1-CFP, rTRPV2-YFP, rTRPV3-YFP, mTRPV4-YFP, or hTRPM2 as previously described. Cell lines were cultured in Earle’s minimum essential medium (MEM; Sigma, Munich, Germany), supplemented with 10% fetal calf serum (Gibco Thermo Fisher Scientific, Darmstadt, Germany), 2 mM L-glutamine, and required concentrations of geneticin in a range of 0.4–1 mg/mL. A HEK293mTRPC5-YFP cell line was maintained and induced as described before. […] For electrophysiological and single cell [Ca^2+]i imaging experiments, PC12 cells were plated onto 25 mm poly-L-lysine-coated glass coverslips and measured 24–48 h after seeding. […]
(§2) The primary compound screen and the generation of concentration response curves in HEK293 cells or in PC12 cells were performed by using a custom-made fluorescence plate imager built into a robotic liquid handling station equipped with a 96-tip multichannel head (Freedom Evo 150, Tecan, Männedorf, Switzerland) as described previously. […] Plates were mounted on the imager, and fluorescence signals were recorded with a cooled Zyla 5.5 camera (Andor, Belfast, UK) through a 515 nm long pass filter. […] When inhibitory potencies were evaluated, a second pipetting step with the respective reference agonist was performed. […]

mTRPV4-YFP = test system: T3, mTRPV4-YFP; test: Selectivity profiling, fluo-4 [Ca2+]i response, TRPV4; format: cell-based, mouse; settings: 100 µM
T3 construct: expressed in transfected cells
Method: as §1, §2

EC50 of artemisinin under simultaneous application of OAG (TRPC3; 10–100 µM OAG co-applied): not affected
EC50 (TRPC3; fluo-4, HEK TRPC3-YFP cell suspensions, read-out: potency to activate Ca2+ entry through TRPC3): 32.8 µM
Compound: C[C@@H]1CC[C@H]2[C@@H](C)C(=O)O[C@@H]3O[C@@]4(C)CC[C@@H]1[C@]32OO4 [artemisinin]
fluorescence signal of the Ca2+ indicator in primary screen (TRPC3; 20 µM, acute addition): immediate and transient increase in the fluorescence signal
Ca2+ influx signals after preincubation with OAG (TRPC3; preincubation with 500 nM, 1 µM, or 5 µM OAG): did not induce stronger Ca^2+ influx signals
[Ca2+]i response, TRPM8 (TRPM8): none of the cell lines responded
[Ca2+]i response, TRPM3 (mTRPM3α2): none of the cell lines responded
[Ca2+]i response, TRPV4 (mTRPV4-YFP): none of the cell lines responded
